According to the NIST ThermoML archive (doi:10.1021/je800251v):
± gives the expanded uncertainty stated by the source.

Conditions: Liquid

CCOC(=O)CC [ethyl propanoate]
Conditions | mass density [kg/m3]
298.15 K, 100 kPa | 884.3 ± 0.8
298.15 K, 1000 kPa | 884.8 ± 0.8
298.15 K, 2000 kPa | 885.7 ± 0.9
298.15 K, 3000 kPa | 886.6 ± 0.9
298.15 K, 3340 kPa | 886.9 ± 0.9
298.15 K, 5000 kPa | 888.7 ± 0.9
298.15 K, 10000 kPa | 892.9 ± 1.1
298.15 K, 15000 kPa | 896.9 ± 1.2
298.15 K, 20000 kPa | 900.7 ± 1.3
298.15 K, 25000 kPa | 904.4 ± 1.5
298.15 K, 30000 kPa | 908.9 ± 1.5
298.15 K, 35000 kPa | 913.6 ± 1.6
303.15 K, 100 kPa | 878.5 ± 0.8
303.15 K, 1000 kPa | 879 ± 0.8
303.15 K, 2000 kPa | 880 ± 0.9
303.15 K, 3000 kPa | 880.9 ± 0.9
303.15 K, 3340 kPa | 881.2 ± 0.9
303.15 K, 5000 kPa | 883 ± 1
303.15 K, 10000 kPa | 887.4 ± 1.1
303.15 K, 15000 kPa | 891.6 ± 1.3
303.15 K, 20000 kPa | 895.6 ± 1.4
303.15 K, 25000 kPa | 899.4 ± 1.5
303.15 K, 30000 kPa | 904 ± 1.6
303.15 K, 35000 kPa | 908.9 ± 1.7
308.15 K, 100 kPa | 872.7 ± 0.8
308.15 K, 1000 kPa | 873.2 ± 0.9
308.15 K, 2000 kPa | 874.2 ± 0.9
308.15 K, 3000 kPa | 875.2 ± 0.9
308.15 K, 3340 kPa | 875.5 ± 0.9
308.15 K, 5000 kPa | 877.4 ± 1
308.15 K, 10000 kPa | 882 ± 1.1
308.15 K, 15000 kPa | 886.3 ± 1.3
308.15 K, 20000 kPa | 890.4 ± 1.4
308.15 K, 25000 kPa | 894.3 ± 1.6
308.15 K, 30000 kPa | 899.2 ± 1.7
308.15 K, 35000 kPa | 904.2 ± 1.7
313.15 K, 100 kPa | 866.8 ± 0.8
313.15 K, 1000 kPa | 867.4 ± 0.9
313.15 K, 2000 kPa | 868.4 ± 0.9
313.15 K, 3000 kPa | 869.4 ± 0.9
313.15 K, 3340 kPa | 869.8 ± 1
313.15 K, 5000 kPa | 871.7 ± 1
313.15 K, 10000 kPa | 876.5 ± 1.2
313.15 K, 15000 kPa | 880.9 ± 1.3
313.15 K, 20000 kPa | 885.1 ± 1.5
313.15 K, 25000 kPa | 889.3 ± 1.6
313.15 K, 30000 kPa | 894.4 ± 1.7
313.15 K, 35000 kPa | 899.5 ± 1.8
318.15 K, 100 kPa | 860.9 ± 0.9
318.15 K, 1000 kPa | 861.5 ± 0.9
318.15 K, 2000 kPa | 862.6 ± 0.9
318.15 K, 3000 kPa | 863.7 ± 1
318.15 K, 3340 kPa | 864.1 ± 1
318.15 K, 5000 kPa | 866.1 ± 1
318.15 K, 10000 kPa | 871 ± 1.2
318.15 K, 15000 kPa | 875.6 ± 1.4
318.15 K, 20000 kPa | 880 ± 1.5
318.15 K, 25000 kPa | 884.1 ± 1.7
318.15 K, 30000 kPa | 889.1 ± 1.8
318.15 K, 35000 kPa | 894.3 ± 1.9
323.15 K, 100 kPa | 854.9 ± 0.9
323.15 K, 1000 kPa | 856 ± 0.9
323.15 K, 2000 kPa | 857.1 ± 0.9
323.15 K, 3000 kPa | 858.1 ± 1
323.15 K, 3340 kPa | 858.4 ± 1
323.15 K, 5000 kPa | 860.3 ± 1.1
323.15 K, 10000 kPa | 865.4 ± 1.2
323.15 K, 15000 kPa | 870.2 ± 1.4
323.15 K, 20000 kPa | 874.7 ± 1.6
323.15 K, 25000 kPa | 879.1 ± 1.7
323.15 K, 30000 kPa | 884.3 ± 1.8
323.15 K, 35000 kPa | 889.7 ± 1.9
328.15 K, 100 kPa | 849.2 ± 0.9
328.15 K, 1000 kPa | 850.2 ± 0.9
328.15 K, 2000 kPa | 851.3 ± 1
328.15 K, 3000 kPa | 852.5 ± 1
328.15 K, 3340 kPa | 852.9 ± 1
328.15 K, 5000 kPa | 854.7 ± 1.1
328.15 K, 10000 kPa | 860 ± 1.3
328.15 K, 15000 kPa | 865 ± 1.4
328.15 K, 20000 kPa | 869.6 ± 1.6
328.15 K, 25000 kPa | 874 ± 1.8
328.15 K, 30000 kPa | 879.4 ± 1.9
328.15 K, 35000 kPa | 884.9 ± 2
333.15 K, 100 kPa | 843.1 ± 0.9
333.15 K, 1000 kPa | 844.2 ± 0.9
333.15 K, 2000 kPa | 845.4 ± 1
333.15 K, 3000 kPa | 846.6 ± 1
333.15 K, 3340 kPa | 847 ± 1
333.15 K, 5000 kPa | 849 ± 1.1
333.15 K, 10000 kPa | 854.6 ± 1.3
333.15 K, 15000 kPa | 859.7 ± 1.5
333.15 K, 20000 kPa | 864.5 ± 1.7
333.15 K, 25000 kPa | 869.2 ± 1.8
333.15 K, 30000 kPa | 874.8 ± 1.9
333.15 K, 35000 kPa | 880.6 ± 2.1
338.15 K, 100 kPa | 836.9 ± 0.9
338.15 K, 1000 kPa | 838.2 ± 1
338.15 K, 2000 kPa | 839.5 ± 1
338.15 K, 3000 kPa | 840.7 ± 1
338.15 K, 3340 kPa | 841.1 ± 1.1
338.15 K, 5000 kPa | 843.1 ± 1.1
338.15 K, 10000 kPa | 848.8 ± 1.3
338.15 K, 15000 kPa | 854.4 ± 1.5
338.15 K, 20000 kPa | 859.4 ± 1.7
338.15 K, 25000 kPa | 863.6 ± 1.9
338.15 K, 30000 kPa | 869.9 ± 2
338.15 K, 35000 kPa | 875.8 ± 2.1
343.15 K, 100 kPa | 831.1 ± 0.9
343.15 K, 1000 kPa | 832.2 ± 1
343.15 K, 2000 kPa | 833.5 ± 1
343.15 K, 3000 kPa | 834.8 ± 1.1
343.15 K, 3340 kPa | 835.2 ± 1.1
343.15 K, 5000 kPa | 837.4 ± 1.2
343.15 K, 10000 kPa | 843.4 ± 1.4
343.15 K, 15000 kPa | 848.9 ± 1.6
343.15 K, 20000 kPa | 854 ± 1.7
343.15 K, 25000 kPa | 859.1 ± 1.9
343.15 K, 30000 kPa | 865 ± 2.1
343.15 K, 35000 kPa | 871 ± 2.2
348.15 K, 100 kPa | 824.9 ± 0.9
348.15 K, 1000 kPa | 826 ± 1
348.15 K, 2000 kPa | 827.4 ± 1
348.15 K, 3000 kPa | 828.8 ± 1.1
348.15 K, 3340 kPa | 829.3 ± 1.1
348.15 K, 5000 kPa | 831.5 ± 1.2
348.15 K, 10000 kPa | 837.7 ± 1.4
348.15 K, 15000 kPa | 843.4 ± 1.6
348.15 K, 20000 kPa | 848.8 ± 1.8
348.15 K, 25000 kPa | 854 ± 2
348.15 K, 30000 kPa | 860.1 ± 2.1
348.15 K, 35000 kPa | 866.3 ± 2.2
353.15 K, 100 kPa | 818.7 ± 1
353.15 K, 1000 kPa | 819.9 ± 1
353.15 K, 2000 kPa | 821.3 ± 1.1
353.15 K, 3000 kPa | 822.7 ± 1.1
353.15 K, 3340 kPa | 823.2 ± 1.1
353.15 K, 5000 kPa | 825.6 ± 1.2
353.15 K, 10000 kPa | 832.1 ± 1.4
353.15 K, 15000 kPa | 838 ± 1.6
353.15 K, 20000 kPa | 843.5 ± 1.8
353.15 K, 25000 kPa | 848.9 ± 2
353.15 K, 30000 kPa | 855.3 ± 2.2
353.15 K, 35000 kPa | 861.6 ± 2.3
363.15 K, 100 kPa | 803.5 ± 1
363.15 K, 1000 kPa | 805.1 ± 1.1
363.15 K, 2000 kPa | 806.9 ± 1.1
363.15 K, 3000 kPa | 808.7 ± 1.2
363.15 K, 3340 kPa | 809.3 ± 1.2
363.15 K, 5000 kPa | 812 ± 1.3
363.15 K, 10000 kPa | 819.6 ± 1.5
363.15 K, 15000 kPa | 826.5 ± 1.7
363.15 K, 20000 kPa | 833 ± 1.9
363.15 K, 25000 kPa | 839.1 ± 2.1
363.15 K, 30000 kPa | 844.8 ± 2.3
363.15 K, 35000 kPa | 850.2 ± 2.5
373.15 K, 100 kPa | 790.9 ± 1
373.15 K, 1000 kPa | 792.6 ± 1.1
373.15 K, 2000 kPa | 794.5 ± 1.2
373.15 K, 3000 kPa | 796.4 ± 1.2
373.15 K, 3340 kPa | 797.1 ± 1.2
373.15 K, 5000 kPa | 800 ± 1.3
373.15 K, 10000 kPa | 808.2 ± 1.6
373.15 K, 15000 kPa | 815.6 ± 1.8
373.15 K, 20000 kPa | 822.5 ± 2
373.15 K, 25000 kPa | 829 ± 2.2
373.15 K, 30000 kPa | 834.9 ± 2.4
373.15 K, 35000 kPa | 840.6 ± 2.6
383.15 K, 1000 kPa | 780 ± 1.1
383.15 K, 2000 kPa | 782.1 ± 1.2
383.15 K, 3000 kPa | 784.1 ± 1.3
383.15 K, 3340 kPa | 784.8 ± 1.3
383.15 K, 5000 kPa | 787.9 ± 1.4
383.15 K, 10000 kPa | 796.6 ± 1.6
383.15 K, 15000 kPa | 804.6 ± 1.9
383.15 K, 20000 kPa | 811.9 ± 2.1
383.15 K, 25000 kPa | 818.7 ± 2.3
383.15 K, 30000 kPa | 825 ± 2.5
383.15 K, 35000 kPa | 830.9 ± 2.7
393.15 K, 1000 kPa | 766.4 ± 1.2
393.15 K, 2000 kPa | 768.7 ± 1.2
393.15 K, 3000 kPa | 770.8 ± 1.3
393.15 K, 3340 kPa | 771.5 ± 1.3
393.15 K, 5000 kPa | 775 ± 1.4
393.15 K, 10000 kPa | 784.5 ± 1.7
393.15 K, 15000 kPa | 793.1 ± 2
393.15 K, 20000 kPa | 800.8 ± 2.2
393.15 K, 25000 kPa | 808 ± 2.4
393.15 K, 30000 kPa | 814.7 ± 2.6
393.15 K, 35000 kPa | 820.9 ± 2.8
